Test results from US8273705B2, “Conversion of apoptotic proteins” (The Burnham Institute, priority 2002, dated 2012).
d = 2'-deoxy (DNA); r = 2'-OH (RNA)

Key:
[1] = tested on: peripheral blood lymphocytes (PBLs); test: Apoptosis of peripheral blood lymphocytes; format: cell-based, human; conditions: oligonucleotide transfected
Procedure: Isolation and transfection of human peripheral blood lymphocytes (PBLs)—Leukocyte-enriched buffy coats from San Diego Blood Bank were diluted with 2 volumes of PBS, and PBLs were isolated by centrifuge on Ficoll-paque™ Plus (Amersham Pharmacia biotech). The mononuclear cells were cultured in RPMI containing 10% FBS and 20 μM Hepes. Freshly isolated cells (10^7 cells per transfection) were washed once with PBS containing 0.5% BSA and supernatant was completely discarded so that no residual PBS/BSA covers the pellet. The cells were resuspended in 100 μl of the human T Cell Nucleofector™ solution (Amexa biosystems) and very gently mixed with 1-4 μg DNA in 5 μl. The cell suspension was transferred into a cuvette supplied by Amexa biosystems and electroporated using U-14 program of Nucleofector™ device. The cells were removed from the cuvette quickly by adding 500 μl of the pre-warmed RPMI medium containing 10% FBS and 20 μM Hepes and transferred into 12 well plates containing 1.5 ml of pre-warmed culture medium.

H460 lung cancer cells = test: TR3 induction and apoptosis in H460 lung cancer cells; format: cell-based
Procedure: (§1) In addition to TPA, AHPN and its structural analogs also induce TR3 expression and TR3-dependent apoptosis in an epithelial cancer cell line. […] Lysates were then incubated with anti-Bcl-2 antibody. Immunoblotting of immunoprecipitates was conducted using anti-TR3 and anti-Bcl-2 antibodies.
BH3-only proteins exert their apoptotic effects through either Bax or Bak. The involvement of Bax and Bak in Bcl-2-dependent apoptosis induced by TR3 was therefore examined.
To determine whether Bak, which was highly expressed in H460 cells, played a role in Bcl-2-dependent apoptosis induced by TR3, the effects of Bak siRNA transfection was examined. […] Thus, Bcl-2-dependent apoptosis induced by TR3 depends on multidomain pro-apoptotic Bcl-2-family proteins such as Bak.

[2] = tested on: MGC80-3 gastric cancer cells; test: TR3 mitochondrial targeting in MGC80-3 gastric cancer cells; format: cell-based; conditions: MGC80-3 cells treated with 3-Cl-AHPC
Procedure: C. Small interfering RNA (siRNA)—To complement these gene transfection experiments, a small interfering (si)RNA approach was used to determine the effect of suppressing endogenous Bcl-2 expression on TR3 mitochondrial targeting. […] After 48 h, lysates were prepared and assayed by immunoblotting using anti-Bcl-2 and anti-β-actin antibodies.

MGC80-3 cells = test: TR3-dependent apoptosis in MGC80-3 cells with Bcl-2 siRNA; format: cell-based; conditions: control GFP-siRNA-transfected MGC80-3 cells
Procedure: Bcl-2 siRNAs and antisense oligonucleotides—The target siRNA SMARTPOOLs® for Bcl-2 and Bak and the siRNA oligonucleotide for TR3 (5′-CAG UCC AGC CAU GCU CCU dTdT) (SEQ ID NO: 2) were purchased from Dharmacon Research Inc. Target or control siRNA were transfected at a final concentration of 200 nM into cells at 40% confluency using Oligofectamine reagent (Invitrogen) according to the manufacturer's recommendations. After 48 h, cells were analyzed. Bcl-2 antisense oligonucleotide targeting Bcl-2 and negative control oligonucleotides were obtained from Calbiochem. They (2.5 μM) were transfected into cells at 60% confluency for 36 h before analysis.
The effect of inhibiting endogenous Bcl-2 expression on the TR3-dependent apoptosis in MGC80-3 cells was next analyzed. […] However, 3-Cl-AHPC-induced apoptosis was suppressed by more than half (about 60%) in Bcl-2 siRNA-transfected cells. Similar results were obtained in H460 lung cancer cells. […] Thus, Bcl-2 can manifest a pro-apoptotic phenotype in settings where TR3 is expressed and targets to mitochondria.

TR3/Bcl-2 interaction = test: Co-IP of TR3 and Bcl-2 in H460 lung cancer cells; format: cell-based; conditions: 10^−6 M for 3 hours
Procedure: as §1

[3] = tested on: primary dopaminergic neurons; test: TR3 localization in primary dopaminergic neurons; format: cell-based, rat; conditions: 100 μM, one hour
Procedure: To further investigate TR3 targeting of mitochondria, rat primary neurons were treated with the dopaminergic neurotoxin 1-methyl-4-phenyl-1,2,3,6-tetrahydropyridine (MPTP). MPTP induces Parkinson's disease in animals. […] Neurons were identified by staining with neuron marker. TR3 and mitochondria (Hsp60) were visualized using confocal microscopy. […] TR3 was found only in the nucleus of non-treated neurons. Thus, TR3 mitochondrial localization plays a role in mediating the effect of dopaminergic neurotoxin in neurons.

293T cells = test: DAPI apoptosis assay in 293T cells; format: cell-based, human; conditions: 293T, transfected alone, 36 h, DAPI
Procedure: Apoptosis assays—For nuclear morphological change analysis, cells were trypsinized, washed with PBS, fixed with 3.7% paraformaldehyde, and stained with DAPI (4,6-diamidino-2-phenylindole) (50 μg/ml) to visualize the nuclei by UV-microscopy. The percentages of apoptotic cells were determined by counting 300 GFP-positive cells, scoring cells having nuclear fragmentation and/or chromatin condensation.
DAPI staining was used to study the apoptotic effect of TR3/Bcl-2 interaction. 293T cells were transfected with GFP-TR3/ΔDBD alone or together with Bcl-2. After 36 h, nuclei were stained by DAPI and nuclear fragmentation and chromatin condensation were identified. Cells were also stained with anti-Bcl-2 antibody, followed by TRITC-conjugated secondary antibody (Sigma). Bcl-2 and GFP-ΔDBD expression and nuclear morphology were visualized by fluorescence microscopy, and the two images were overlaid. […] But, when Bcl-2 was cotransfected, a significant amount of transfected cells underwent apoptosis. For example, approximately 4% of cells transfected with either TR3/ΔDBD or Bcl-2 were apoptotic, compared to 35% of cell transfected with both. […]
To characterize the pro-apoptotic mechanism of Bcl-2 in the setting of TR3-induced apoptosis, various TR3 mutants and Bcl-2 mutants were co-expressed in HEK293T cells. […] Cells displaying nuclear condensation or fragmentation were scored. […]

Bcl-2 = target: T1, Bcl-2 (Homo sapiens, UniProt P10415); test: GST pull-down assay; format: binding
T1 construct: expressed in transfected cells; host or cells: HEK293T
Procedure: (§2) TR3/Bcl-2 interaction assays—Reporter gene assays using NurRE-tk-CAT in CV-1 cells, and GST pull-down assay were described previously (Li, et al. 2000 Science 289, 1159-1164). For the mammalian two-hybrid assays, CV-1 cells were co-transfected with pcDNA-Gal4TAD-TR3 or pcDNA-Gal4TAD-TR3/ΔDBD and pcDNA-Gal4DBD-Bcl-2/ΔTM along with a luciferase reporter gene driven by four copies of the Gal4-binding site. The cells were harvested and reporter gene activity was measured. For Co-IP assays, HEK293T cells were transiently transfected with various expression plasmids using a modified calcium phosphate precipitation method (Wu et al, 1997) in the presence of caspase inhibitors (zVAD-fmk) to prevent degradation of TR3 protein due to apoptosis. Cells were suspended in lysis buffer (50 mM Tris-HCl, PH7.4; 150 mM NaCl; 20 mM EDTA; 1% NP-40; 1 mM PMSF; 50 μg/ml Leupeptin; […]; 0.1 mM Na3VO4; and 1 mM DTT). Cells extracts were cleared by incubation with the Protein A/G plus Agarose beads (Santa Cruz) and then incubated with appropriate antibody and 30 μl of Protein A or G plus Agarose beads overnight at 4° C. […] Immunoreactive products were detected by chemiluminescence with an enhanced chemiluminescence system (ECL) (Amersham).
C. in vitro protein binding assays. […] Bound proteins were analyzed by SDS-PAGE autoradiography. ^35S-labeled Bcl-2 was pulled down by GST-TR3 but not by GST. […]

Bcl-XL = target: T2, Bcl-XL (Homo sapiens, UniProt Q07817); test: TCTP/Bcl-XL interaction (yeast two-hybrid, immunoprecipitation in HEK293T); format: binding
T2 construct: expressed in transfected cells; host or cells: HEK293T
Excerpt: Bcl-XL cDNA was constructed into the pGilda yeast two-hybrid vector. Using pGilda-Bcl-XL as bait, a human testis cDNA library was used in yeast two-hybrid screening to screen for potential Bcl-XL interacting proteins. pGilda-Bcl-XL and a reporter plasmid pSH18-34 were co-transfected into EGY48 yeast cells. The transfectant yeast cells were then transfected in large scale with yeast two-hybrid library cDNA plasmids. Positive clones were identified through selection in Leucine-deficient media. A total of 95 positive colonies were identified. These positive clones were further examined for a second reporter expression by β-gal filter assays. Among these clones, 29 of them tested positive. These clones were further examined by mating assays to confirm the interaction with Bcl-XL. Ten positive clones were isolated and sequenced to reveal their identity. Two of them encode cDNAs identical to human Translationally-Controlled Tumor Protein (TCTP).
TCTP is a calcium-binding protein with no previous identified role in apoptosis regulation. […] Cell lysates were immunoprecipitated with polyclonal anti-GFP antibody. The immunoprecipitates or the lysates were blotted with anti-HA or anti-GFP antibodies, respectively.

cos-7 cells [4] = test: TCTP/Bcl-XL co-localization in cos-7 cells; format: cell-based; conditions: cos-7, GFP-TCTP and RFP-Bcl-XL
Excerpt: Images were photographed with a confocal microscope.

cos-7 cells [5] = test: TCTP-induced apoptosis (DAPI) in cos-7 cells; format: cell-based
Procedure: Cells were fixed and stained with DAPI 48 hours after transfection (n≧200 total cells evaluated) and the percentage of apoptotic cells was calculated (mean±SD, n=3) (FIG. 7).

Bcl-2/ΔTM = target: T3, Bcl-2/ΔTM (Homo sapiens, UniProt P10415); test: Mammalian two-hybrid assay in CV-1 cells; format: cell-based; conditions: Gal-TAD fusion co-expressed with Gal4-DBD-Bcl-2/ΔTM, 48 h
T3 construct: expressed in transfected cells; host or cells: CV-1
Procedure: as §2, with “DTT).” for “DTT). Cells extracts were cleared by incubation with the Protein A/G plus Agarose beads (Santa Cruz) and then incubated with appropriate antibody and 30 μl of Protein A or G plus Agarose beads overnight at 4° C.”
E. Two-hybrid assay—a two-hybrid assay was performed to assess the interaction of TR3 and Bcl-2. […] Reporter gene activity was determined 48 h later and normalized relative to β-gal activity.

T1 sequence (P10415 whole entry): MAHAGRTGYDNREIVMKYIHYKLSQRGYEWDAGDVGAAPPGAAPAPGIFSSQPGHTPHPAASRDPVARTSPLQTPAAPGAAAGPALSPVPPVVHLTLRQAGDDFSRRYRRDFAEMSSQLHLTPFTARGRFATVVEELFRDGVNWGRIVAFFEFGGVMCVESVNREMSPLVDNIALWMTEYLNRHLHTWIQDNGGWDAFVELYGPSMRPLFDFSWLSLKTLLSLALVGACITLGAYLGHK
T2 sequence (Q07817 whole entry): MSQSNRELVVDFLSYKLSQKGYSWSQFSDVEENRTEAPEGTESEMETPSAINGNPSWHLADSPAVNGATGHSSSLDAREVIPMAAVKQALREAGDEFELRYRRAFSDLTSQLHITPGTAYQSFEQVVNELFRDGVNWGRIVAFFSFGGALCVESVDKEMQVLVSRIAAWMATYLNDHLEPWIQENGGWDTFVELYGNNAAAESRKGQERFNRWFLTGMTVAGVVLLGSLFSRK
T3 sequence (P10415 1-204 limits assumed, stated change not applied): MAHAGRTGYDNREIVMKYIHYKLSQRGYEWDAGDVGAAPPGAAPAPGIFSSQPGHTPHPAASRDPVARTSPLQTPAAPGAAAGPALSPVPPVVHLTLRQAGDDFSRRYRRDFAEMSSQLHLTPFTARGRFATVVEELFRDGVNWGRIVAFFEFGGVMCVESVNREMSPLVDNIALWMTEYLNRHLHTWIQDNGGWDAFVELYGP

Molecule: 5′-CAG UCC AGC CAU GCU CCU dTdT (CAGUCCAGCCAUGCUCCUTT; siRNA; sugars from the 5' end r18 d2, backbone not given here) [TR3 siRNA, reference compound]
- TPA/ionomycin-induced apoptosis of PBLs [1]: partially inhibited

Molecule: O=C(O)/C=C/c1ccc(-c2ccc(O)c(C34CC5CC(CC(C5)C3)C4)c2)c(Cl)c1 [3-Cl-AHPC]
- apoptosis (H460 lung cancer cells): extensive apoptosis
- TR3 expression, mitochondrial targeting and apoptosis (H460 lung cancer cells; 10^−6 M for 3 hours): potently induces TR3 expression, mitochondrial targeting and apoptosis
- endogenous TR3 localization [2]: targeted mitochondria
- apoptosis (MGC80-3 cells): resulted in apoptosis
- co-immunoprecipitation of TR3 with anti-Bcl-2 antibody (TR3/Bcl-2 interaction): demonstrated co-immunoprecipitation of TR3

Molecule: CN1CC=C(c2ccccc2)CC1 [MPTP, 1-methyl-4-phenyl-1,2,3,6-tetrahydropyridine]
- endogenous TR3 localization [3]: found exclusively in the cytoplasm and colocalized with mitochondria

Molecule: Bcl-2: Bcl-2 expression vector transfected into cells
- apoptotic cells (293T cells): approximately 4%

Molecule: GST-TR3: GST fusion of TR3 immobilized on glutathione-Sepharose
- binding of ^35S-labeled Bcl-2 (Bcl-2): pulled down

Molecule: TCTP: human Translationally-Controlled Tumor Protein
- interaction with Bcl-XL (Bcl-XL): interacts with Bcl-XL
- subcellular localization with Bcl-XL (cos-7 cells [4]): recruits TCTP from cytosolic location to the mitochondria
- apoptosis (cos-7 cells [5]; expressed together with Bcl-XL versus without Bcl-XL, 48 hours): More apoptosis
- apoptosis (cos-7 cells [5]; over-expressed in cells): induces apoptosis

Molecule: TR3: orphan receptor TR3, nuclear transcription factor
- Gal4 reporter gene activity (Bcl-2/ΔTM): strongly activated
